Experimental data published in patent publication US8124610B2, “Sodium channel inhibitors” (Icagen Inc., priority 2007, dated 2012).

Target: T1, hSCN9A (Homo sapiens, UniProt Q15858)
T1 construct: expressed in transfected cells
Experiment: Whole-cell patch-clamp electrophysiology (conventional or PatchXpress), HEK cells expressing hSCN9A, estimated IC-50
Format: cell-based
Settings: estimated IC-50, HEK cells expressing hSCN9A; class symbols or bounds; read-out: SCN9A EIC-50
Description: Human Embryonic Kidney (HEK) cells were transfected with hSCN3A or hSCN9A constructs using lipofectamine reagent (Invitrogen), using standard techniques. Cells stably expressing the hSCN3A or hSCN9A constructs were identified by their resistance to G-418 (400 μg/ml). Clones were screened for expression using the whole-cell voltage-clamp technique. HEK cells stably transfected with hSCN3A or hSCN9A were maintained in DMEM medium supplemented with 10% heat-inactivated fetal bovine serum and 400 μg/ml G418 sulfate in an incubator at 37° C. with a humidified atmosphere of 10% CO2. For HTS, cells were harvested from flasks by trypsinization and replated in an appropriate multi-well plate (typically 96 or 384 wells/plate) such that confluence would be achieved within 24 hours of plating. For electrophysiological studies, cells were removed from the culture flask by brief trypsinization and replated at low density onto glass cover slips. Cells were typically used for electrophysiological experiments within 24 to 72 h after plating. Cover slips containing HEK cells expressing hSCN3A or hSCN9A were placed in a bath on the stage of an inverted microscope and perfused (approximately 1 ml/min) with extracellular solution of the following composition: 138 mM NaCl, 2 mM CaCl2, 5.4 mM KCl, 1 mM MgCl2, 10 mM glucose, and 10 mM HEPES, pH 7.4, with NaOH. […] All recordings were made at room temperature (22-24° C.) using AXOPATCH 200B amplifiers and PCLAMP software (Axon Instruments, Burlingame, Calif.) or PatchXpress 7000 hardware and associated software (Axon Instruments, Burlingame, Calif.). hSCN3A or hSCN9A currents in HEK cells were measured using the whole-cell configuration of the patch-clamp technique (Hamill et al., 1981). […] As a result, voltage errors were negligible and no correction was applied. Current records were acquired at 20 to 50 KHz and filtered at 5 to 10 KHz. HEK cells stably transfected with hSCN3A or hSCN9A were viewed under Hoffman contrast optics and placed in front of an array of flow pipes emitting either control or compound-containing extracellular solutions. All compounds were dissolved in dimethyl sulfoxide to make 10 mM stock solutions, which were then diluted into extracellular solution to attain the final concentrations desired. […] The voltage-dependence of inactivation was determined by applying a series of depolarizing prepulses (8 sec long in 10 mV increments) from a negative holding potential. The voltage was then immediately stepped to 0 mV to assess the magnitude of the sodium current. Currents elicited at 0 mV were plotted as a function of prepulse potential to allow estimation of the voltage midpoint of inactivation (V1/2). Cells were then voltage clamped at the empirically determined V1/2. Compounds were tested for their ability to inhibit hSCN3A or hSCN9A sodium channels by activating the channel with a 20 msec voltage step to 0 mV following an 8 second conditioning prepulse to the empirically determined V1-2 (Table B). Compound effect (% inhibition) was determined by difference in current amplitude before and after application of test compounds. […] In some cases electrophysiological assays were conducted with PatchXpress 7000 hardware and associated software (Molecular Devices Corp) (Table B). All assay buffers and solutions were identical to those used in conventional whole-cell voltage clamp experiments described above. hSCN3A or hSCN9A containing cells were grown as above to 50%-80% confluency and harvested by trypsinization. Trypsinized cells were washed and resuspended in extracellular buffer at a concentration of 1×10^6 cells/ml. The onboard liquid handling facility of the PatchXpress was used for dispensing cells and application of test compounds. Determination of the voltage midpoint of inactivation was as described for conventional whole-cell recordings. Cells were then voltage-clamped to the empirically determined V1/2 and current was activated by a 20 msec voltage step to 0 mV.

T1 sequence (Q15858 whole entry): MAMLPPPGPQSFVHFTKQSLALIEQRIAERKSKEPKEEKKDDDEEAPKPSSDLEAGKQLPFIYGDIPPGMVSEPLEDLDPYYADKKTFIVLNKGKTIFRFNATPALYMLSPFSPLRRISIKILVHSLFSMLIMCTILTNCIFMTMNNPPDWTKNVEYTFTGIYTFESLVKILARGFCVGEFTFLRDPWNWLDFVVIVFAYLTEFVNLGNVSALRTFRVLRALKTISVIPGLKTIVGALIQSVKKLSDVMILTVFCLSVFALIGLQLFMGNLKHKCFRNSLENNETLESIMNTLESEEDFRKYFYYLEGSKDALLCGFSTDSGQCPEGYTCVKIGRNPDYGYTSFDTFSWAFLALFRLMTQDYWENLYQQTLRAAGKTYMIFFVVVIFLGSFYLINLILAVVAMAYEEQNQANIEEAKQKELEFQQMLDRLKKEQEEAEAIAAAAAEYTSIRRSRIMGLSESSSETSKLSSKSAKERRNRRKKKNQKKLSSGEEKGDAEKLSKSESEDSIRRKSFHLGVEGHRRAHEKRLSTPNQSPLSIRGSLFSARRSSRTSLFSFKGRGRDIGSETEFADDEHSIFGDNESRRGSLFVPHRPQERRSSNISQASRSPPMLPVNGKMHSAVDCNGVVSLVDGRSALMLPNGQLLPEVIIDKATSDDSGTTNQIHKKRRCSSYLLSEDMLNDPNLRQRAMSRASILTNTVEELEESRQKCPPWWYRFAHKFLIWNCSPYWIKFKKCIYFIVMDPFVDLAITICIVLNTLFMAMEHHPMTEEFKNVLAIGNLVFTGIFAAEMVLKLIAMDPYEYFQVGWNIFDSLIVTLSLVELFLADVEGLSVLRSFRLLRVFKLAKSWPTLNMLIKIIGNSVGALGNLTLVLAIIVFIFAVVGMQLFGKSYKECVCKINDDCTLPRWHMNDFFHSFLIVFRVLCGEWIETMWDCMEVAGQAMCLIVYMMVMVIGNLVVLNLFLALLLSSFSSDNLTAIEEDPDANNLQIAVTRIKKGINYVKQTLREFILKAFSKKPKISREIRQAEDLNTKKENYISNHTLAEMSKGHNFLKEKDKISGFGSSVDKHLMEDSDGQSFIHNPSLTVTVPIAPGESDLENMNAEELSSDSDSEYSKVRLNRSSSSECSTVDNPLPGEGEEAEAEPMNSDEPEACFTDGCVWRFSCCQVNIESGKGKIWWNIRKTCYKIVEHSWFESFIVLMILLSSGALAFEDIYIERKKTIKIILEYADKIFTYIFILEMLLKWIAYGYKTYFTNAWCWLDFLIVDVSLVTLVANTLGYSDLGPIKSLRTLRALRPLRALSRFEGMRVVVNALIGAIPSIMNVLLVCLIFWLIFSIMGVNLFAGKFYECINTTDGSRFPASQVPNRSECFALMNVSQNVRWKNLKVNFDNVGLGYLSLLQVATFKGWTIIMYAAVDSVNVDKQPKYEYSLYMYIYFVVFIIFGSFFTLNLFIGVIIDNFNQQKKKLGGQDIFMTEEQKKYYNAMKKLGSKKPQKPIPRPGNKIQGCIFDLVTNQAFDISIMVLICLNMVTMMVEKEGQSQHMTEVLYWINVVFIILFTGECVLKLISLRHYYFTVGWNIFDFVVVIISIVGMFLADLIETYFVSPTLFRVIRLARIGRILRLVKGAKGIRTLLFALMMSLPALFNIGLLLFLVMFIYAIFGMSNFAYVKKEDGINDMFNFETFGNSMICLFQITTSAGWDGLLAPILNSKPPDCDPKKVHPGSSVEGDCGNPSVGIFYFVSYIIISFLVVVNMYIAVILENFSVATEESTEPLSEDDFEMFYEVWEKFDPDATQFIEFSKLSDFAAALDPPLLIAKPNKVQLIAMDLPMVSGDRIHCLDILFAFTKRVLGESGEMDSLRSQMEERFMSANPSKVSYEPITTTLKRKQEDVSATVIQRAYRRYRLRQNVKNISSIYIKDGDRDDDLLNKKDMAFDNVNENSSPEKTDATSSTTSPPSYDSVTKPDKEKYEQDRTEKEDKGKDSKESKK

| IC50 [µM] | Structure (SMILES) |
| --- | --- |
| > 1 | O=S(=O)(Nc1nnc(C2CC2)s1)c1ccc(Nc2ccn(Cc3ccc(Cl)cc3)n2)cc1F [Compound 253, 4-(1-(4-chlorobenzyl)-1H-pyrazol-3-ylamino)-N-(5-cyclopropyl-1,3,4-thiadiazol-2-yl)-2-fluorobenzenesulfonamide] |
| < 2 | O=S(=O)(Nc1nccs1)c1ccc(Nc2ncn(Cc3ccc(Cl)cc3)n2)c(F)c1 [Compound 199, 4-(1-(4-chlorobenzyl)-1H-1,2,4-triazol-3-ylamino)-3-fluoro-N-(thiazol-2-yl)benzenesulfonamide] |
| < 2 | Cc1cc(Nc2ccc(S(=O)(=O)Nc3nccs3)c(F)c2)n(-c2ccccc2C(F)(F)F)n1 [Compound 179, 2-fluoro-4-(3-methyl-1-(2-(trifluoromethyl)phenyl)-1H-pyrazol-5-ylamino)-N-(thiazol-2-yl)benzenesulfonamide] |
| 2 to 10 | Cc1cc(Nc2ccc(S(=O)(=O)Nc3ncns3)c(F)c2)n(-c2ccccc2)n1 [Compound 240, 2-fluoro-4-(3-methyl-1-phenyl-1H-pyrazol-5-ylamino)-N-(1,2,4-thiadiazol-5-yl)benzenesulfonamide] |
| 2 to 10 | O=S(=O)(Nc1nccs1)c1ccc(Nc2nc3ccccc3o2)cc1 [Compound 114, 4-(benzo[d]oxazol-2-ylamino)-N-(thiazol-2-yl)benzenesulfonamide] |
| > 1 | COCc1nnc(NS(=O)(=O)c2ccc(Nc3ccn(Cc4ccc(Cl)cc4)n3)cc2F)s1 [Compound 254, 4-(1-(4-chlorobenzyl)-1H-pyrazol-3-ylamino)-2-fluoro-N-(5-(methoxymethyl)-1,3,4-thiadiazol-2-yl)benzenesulfonamide] |
| < 2 | O=S(=O)(Nc1nccs1)c1ccc(Nc2cnn(C(c3ccccc3)c3ccccc3)c2)cc1F [Compound 171, 4-(1-benzhydryl-1H-pyrazol-4-ylamino)-2-fluoro-N-(thiazol-2-yl)benzenesulfonamide] |
| < 2 | COc1ccccc1-c1cc(Nc2ccc(S(=O)(=O)Nc3nccs3)c(F)c2)n(C)n1 [Compound 223, 2-fluoro-4-(3-(2-methoxyphenyl)-1-methyl-1H-pyrazol-5-ylamino)-N-(thiazol-2-yl)benzenesulfonamide] |
| > 1 | O=S(=O)(Nc1nccs1)c1ccc(Nc2nc(-c3ccc(Cl)cc3)cs2)cc1F [Compound 104, 4-(4-(4-chlorophenyl)thiazol-2-ylamino)-2-fluoro-N-(thiazol-2-yl)benzenesulfonamide] |
| < 2 | O=S(=O)(Nc1nccs1)c1ccc(Nc2cc(C3CC3)nn2-c2ccccc2)cc1 [Compound 144, 4-(3-cyclopropyl-1-phenyl-1H-pyrazol-5-ylamino)-N-(thiazol-2-yl)benzenesulfonamide] |
| < 2 | Cc1ccc(Cc2cc(Nc3ccc(S(=O)(=O)Nc4nccs4)cc3F)[nH]n2)cc1 [Compound 167, 3-fluoro-4-(3-(4-methylbenzyl)-1H-pyrazol-5-ylamino)-N-(thiazol-2-yl)benzenesulfonamide] |
| < 2 | Cc1ccc(Cc2cc(Nc3ccc(S(=O)(=O)Nc4nccs4)c(F)c3)n(C)n2)cc1 [Compound 159, 2-fluoro-4-(1-methyl-3-(4-methylbenzyl)-1H-pyrazol-5-ylamino)-N-(thiazol-2-yl)benzenesulfonamide] |
| 2 to 10 | O=S(=O)(Nc1nnc(C(F)(F)F)s1)c1ccc(Nc2ccn(Cc3ccc(Cl)cc3)n2)cc1F [Compound 243, 4-(1-(4-chlorobenzyl)-1H-pyrazol-3-ylamino)-2-fluoro-N-(5-(trifluoromethyl)-1,3,4-thiadiazol-2-yl)benzenesulfonamide] |
| > 1 | O=S(=O)(Nc1nc(C(F)(F)F)co1)c1ccc(Nc2nc(Cc3ccc(Cl)cc3)cs2)cc1 [Compound 258, 4-(4-(4-chlorobenzyl)thiazol-2-ylamino)-N-(4-(trifluoromethyl)oxazol-2-yl)benzenesulfonamide] |
| < 2 | COc1ccccc1-n1nc(C(C)(C)C)cc1Nc1ccc(S(=O)(=O)Nc2nccs2)c(F)c1 [Compound 214, 4-(3-tert-butyl-1-(2-methoxyphenyl)-1H-pyrazol-5-ylamino)-2-fluoro-N-(thiazol-2-yl)benzenesulfonamide] |
| > 1 | CC(C)c1nnc(NS(=O)(=O)c2ccc(Nc3ccn(Cc4ccc(Cl)cc4)n3)cc2F)s1 [Compound 256, 4-(1-(4-chlorobenzyl)-1H-pyrazol-3-ylamino)-2-fluoro-N-(5-isopropyl-1,3,4-thiadiazol-2-yl)benzenesulfonamide] |
| > 1 | Cn1nc(Cc2ccc(Cl)cc2)c(C(N)=O)c1Nc1ccc(S(=O)(=O)Nc2nccs2)cc1 [Compound 121, 3-(4-chlorobenzyl)-1-methyl-5-(4-(N-thiazol-2-ylsulfamoyl)phenylamino)-1H-pyrazole-4-carboxamide] |
| 2 to 10 | NC(=O)c1cn(Cc2ccc(Cl)cc2)nc1Nc1ccc(S(=O)(=O)Nc2nccs2)c(F)c1 [Compound 221, 1-(4-chlorobenzyl)-3-(3-fluoro-4-(N-thiazol-2-ylsulfamoyl)phenylamino)-1H-pyrazole-4-carboxamide] |
| 2 to 10 | Cc1cc(Nc2ccc(S(=O)(=O)Nc3nccs3)c(F)c2)n(C2CCN(C)CC2)n1 [Compound 202, 2-fluoro-4-(3-methyl-1-(1-methylpiperidin-4-yl)-1H-pyrazol-5-ylamino)-N-(thiazol-2-yl)benzenesulfonamide] |
| > 1 | Cc1cc(Nc2ccc(S(=O)(=O)Nc3nnc(C)s3)c(F)c2)n(-c2ccccc2)n1 [Compound 247, 2-fluoro-N-(5-methyl-1,3,4-thiadiazol-2-yl)-4-(3-methyl-1-phenyl-1H-pyrazol-5-ylamino)benzenesulfonamide] |
| 2 to 10 | Cc1cc(Nc2ccc(S(=O)(=O)Nc3nncs3)c(F)c2)n(-c2ccccc2)n1 [Compound 238, 2-fluoro-4-(3-methyl-1-phenyl-1H-pyrazol-5-ylamino)-N-(1,3,4-thiadiazol-2-yl)benzenesulfonamide] |
| < 2 | O=S(=O)(Nc1nccs1)c1ccc(Nc2cnn(Cc3ccc(Cl)c(C(F)(F)F)c3)c2)cc1F [Compound 229, 4-(1-(4-chloro-3-(trifluoromethyl)benzyl)-1H-pyrazol-4-ylamino)-2-fluoro-N-(thiazol-2-yl)benzenesulfonamide] |
| > 1 | CCc1nnc(NS(=O)(=O)c2ccc(Nc3ccn(Cc4ccc(Cl)cc4)n3)cc2F)s1 [Compound 255, 4-(1-(4-chlorobenzyl)-1H-pyrazol-3-ylamino)-N-(5-ethyl-1,3,4-thiadiazol-2-yl)-2-fluorobenzenesulfonamide] |
| 2 to 10 | Cc1nn(Cc2ccc(Cl)cc2)c(C)c1Nc1ccc(S(=O)(=O)Nc2nccs2)c(F)c1 [Compound 225, 4-(1-(4-chlorobenzyl)-3,5-dimethyl-1H-pyrazol-4-ylamino)-2-fluoro-N-(thiazol-2-yl)benzenesulfonamide] |
| 2 to 10 | Cc1cc(Nc2ccc(S(=O)(=O)Nc3nccs3)c(C)c2)n(-c2ccccc2)n1 [Compound 268, 2-methyl-4-(3-methyl-1-phenyl-1H-pyrazol-5-ylamino)-N-(thiazol-2-yl)benzenesulfonamide] |
| 2 to 10 | Cc1cc(Nc2ccc(S(=O)(=O)Nc3nnc(-c4ccccc4)s3)c(F)c2)n(-c2ccccc2)n1 [Compound 241, 2-fluoro-4-(3-methyl-1-phenyl-1H-pyrazol-5-ylamino)-N-(5-phenyl-1,3,4-thiadiazol-2-yl)benzenesulfonamide] |
| > 1 | Cc1nnc(NS(=O)(=O)c2ccc(Nc3ccn(Cc4ccc(Cl)cc4)n3)cc2F)s1 [Compound 251, 4-(1-(4-chlorobenzyl)-1H-pyrazol-3-ylamino)-2-fluoro-N-(5-methyl-1,3,4-thiadiazol-2-yl)benzenesulfonamide] |
